US20230322846A9, “NEUROACTIVE STEROIDS AND THEIR METHODS OF USE” (SAGE THERAPEUTICS, INC., priority 2018, published 2023)
pEC50, pIC50: −log10 of the molar value.

Target: human GABAA receptors composed of the α4β3δ subunits (Homo sapiens (Human), UniProt O14764+P28472+P48169)
Assay: α4β3δ SyncroPatch automated patch clamp assay
Assay type: cell-based
Conditions: HEK cells, potentiation of submaximal GABA current, clamped at −120 mV
Protocol: (§1) The SyncroPatch 384PE (Nanion, Germany) automated patch clamp platform was used to obtain recordings from human embryonic kidney cells stably expressing human GABAA receptors composed of the α1β2γ2 and α4β3δ subunits. Cells were bathed in an extracellular solution containing: 140 mM NaCl, 4 mM KCl, 2 mM CaCl2), 1 mM MgCl2, 10 mM HEPES, 5 mM glucose and 0.1% DMSO. Solution was maintained at pH 7.4 with NaOH and 300 mOsm/L. Chips with multi-hole (4×) medium resistance (2-3M) are used for the recombinant cell line experiments. Once harvested, cells are stored in extracellular solution set to 10° C. in the cell hotel with a minimum shaking speed of 200 rpm before addition to the chip at the beginning of each experiment. Whole cell patch clamp recordings were made using an intracellular solution containing: 90 mM KCl, 50 mM KF, 1.5 mM MgCl2, 11.1 mM EGTA and 10 mM HEPES, 2 mM NaATP, maintained at pH 7.2 with KOH. Currents are leak corrected (using P/2 leak correction protocol) and sampled at 5 kHz. Cells were clamped at −120 mV. After establishing a stable baseline, a submaximal concentration of GABA (3-5 μM for cells expressing α1β2γ2 and 10 μM for cells expressing […]) was applied at a rate of 10 μl/second, immediately followed by application of GABA+compound (10 μl/second) at a single concentration of compound per cell. Compounds were tested at six concentrations (0.029, 0.12, 0.47, 1.88, 7.5, and 30 μM) in n=8-12 cells per concentration. Compound effect was determined by dividing peak current amplitude after GABA+compound by peak current amplitude after GABA alone. EC50 and Emax values were determined from average values for each concentration.

Sequence of human GABAA receptors composed of the α4β3δ subunits (P48169 36-554 limits assumed): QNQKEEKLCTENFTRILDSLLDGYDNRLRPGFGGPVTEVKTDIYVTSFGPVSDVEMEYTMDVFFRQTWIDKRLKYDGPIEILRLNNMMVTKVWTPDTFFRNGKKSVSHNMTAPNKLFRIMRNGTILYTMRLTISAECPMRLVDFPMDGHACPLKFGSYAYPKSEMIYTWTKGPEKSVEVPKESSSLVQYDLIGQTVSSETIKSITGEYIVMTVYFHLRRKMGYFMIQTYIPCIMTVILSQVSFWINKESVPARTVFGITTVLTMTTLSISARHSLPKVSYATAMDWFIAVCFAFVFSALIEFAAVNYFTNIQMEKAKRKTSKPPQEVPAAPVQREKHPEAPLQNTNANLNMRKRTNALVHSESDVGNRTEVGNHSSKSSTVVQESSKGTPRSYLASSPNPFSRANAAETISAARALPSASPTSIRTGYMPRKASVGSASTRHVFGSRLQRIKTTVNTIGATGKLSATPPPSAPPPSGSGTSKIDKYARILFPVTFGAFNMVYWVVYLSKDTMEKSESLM
Sequence of human GABAA receptors composed of the α4β3δ subunits (P28472 26-473 limits assumed): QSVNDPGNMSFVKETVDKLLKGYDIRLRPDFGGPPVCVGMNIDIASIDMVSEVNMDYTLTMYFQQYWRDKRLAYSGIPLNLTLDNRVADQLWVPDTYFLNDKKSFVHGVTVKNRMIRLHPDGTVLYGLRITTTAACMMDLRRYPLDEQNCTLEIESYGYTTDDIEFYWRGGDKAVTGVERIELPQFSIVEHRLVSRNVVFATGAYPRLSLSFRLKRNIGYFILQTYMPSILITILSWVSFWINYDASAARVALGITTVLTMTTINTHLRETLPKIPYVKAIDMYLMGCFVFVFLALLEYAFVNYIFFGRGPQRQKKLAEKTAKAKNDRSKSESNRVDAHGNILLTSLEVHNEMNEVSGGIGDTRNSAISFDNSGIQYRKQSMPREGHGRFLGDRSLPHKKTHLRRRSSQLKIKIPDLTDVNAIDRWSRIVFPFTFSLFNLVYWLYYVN
Sequence of human GABAA receptors composed of the α4β3δ subunits (O14764 17-452 limits assumed): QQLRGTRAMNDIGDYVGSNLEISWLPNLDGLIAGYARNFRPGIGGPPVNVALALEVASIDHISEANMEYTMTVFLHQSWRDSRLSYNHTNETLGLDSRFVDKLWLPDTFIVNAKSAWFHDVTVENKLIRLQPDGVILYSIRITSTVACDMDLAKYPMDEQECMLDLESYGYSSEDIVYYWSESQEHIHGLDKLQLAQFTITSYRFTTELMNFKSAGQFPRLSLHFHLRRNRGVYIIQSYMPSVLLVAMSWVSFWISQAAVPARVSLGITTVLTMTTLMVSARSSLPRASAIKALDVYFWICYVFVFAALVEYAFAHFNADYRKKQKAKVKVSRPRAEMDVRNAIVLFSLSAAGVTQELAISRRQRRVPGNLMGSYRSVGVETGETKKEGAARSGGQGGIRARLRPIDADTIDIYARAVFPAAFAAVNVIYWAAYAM

First: CCC[C@@]1(O)CC[C@H]2[C@H](CC[C@@H]3[C@@H]2CC[C@]2(C)[C@@H]([C@@H](C)Cn4nnc(C)n4)[C@@H](O)C[C@@H]32)C1 [Example 365, (3R,5R,8R,9R,10S,13S,14S,16S,17R)-13-methyl-17-((R)-1-(5-methyl-2H-tetrazol-2-yl)propan-2-yl)-3-propylhexadecahydro-1H-cyclopenta[a]phenanthrene-3,16-diol]
Second: COC[C@@]1(O)CC[C@H]2[C@H](CC[C@@H]3[C@@H]2CC[C@]2(C)[C@@H]([C@@H](C)Cc4ccc(C(F)(F)F)nc4)CC[C@@H]32)C1 [Example 420]
The pEC50 of the first is lower: 6.00 to 6.70 for the first, > 6.70 for the second.

Target: human GABAA receptors composed of the α1β2γ2 subunits (Homo sapiens (Human), UniProt P14867+P18507+P47870)
Sequence (P14867 28-456 limits assumed): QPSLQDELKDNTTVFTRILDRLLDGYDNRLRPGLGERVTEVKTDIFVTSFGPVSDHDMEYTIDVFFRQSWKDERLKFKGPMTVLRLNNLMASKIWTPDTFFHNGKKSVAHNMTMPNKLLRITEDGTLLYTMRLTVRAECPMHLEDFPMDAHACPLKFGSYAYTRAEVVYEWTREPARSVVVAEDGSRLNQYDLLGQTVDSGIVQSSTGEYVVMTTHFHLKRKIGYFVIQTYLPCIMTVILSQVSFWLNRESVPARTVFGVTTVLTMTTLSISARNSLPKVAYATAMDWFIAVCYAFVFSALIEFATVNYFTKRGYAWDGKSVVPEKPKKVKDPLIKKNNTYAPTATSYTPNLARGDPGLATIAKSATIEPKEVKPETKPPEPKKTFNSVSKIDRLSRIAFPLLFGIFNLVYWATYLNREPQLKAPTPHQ
Sequence (P47870 25-512 limits assumed): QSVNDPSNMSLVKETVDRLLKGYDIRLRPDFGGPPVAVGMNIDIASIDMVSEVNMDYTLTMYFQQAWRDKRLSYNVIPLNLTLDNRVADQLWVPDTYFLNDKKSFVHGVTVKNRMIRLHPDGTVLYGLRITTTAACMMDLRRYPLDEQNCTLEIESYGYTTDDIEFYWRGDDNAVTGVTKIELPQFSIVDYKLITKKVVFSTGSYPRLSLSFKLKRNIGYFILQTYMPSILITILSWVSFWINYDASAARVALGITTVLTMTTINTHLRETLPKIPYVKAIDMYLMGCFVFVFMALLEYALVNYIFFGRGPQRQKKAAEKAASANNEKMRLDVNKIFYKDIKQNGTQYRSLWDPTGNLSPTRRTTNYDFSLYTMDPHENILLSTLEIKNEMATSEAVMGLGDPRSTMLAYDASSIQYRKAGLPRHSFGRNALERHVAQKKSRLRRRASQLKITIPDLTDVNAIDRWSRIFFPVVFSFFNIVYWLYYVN
Sequence (P18507 40-475 limits assumed): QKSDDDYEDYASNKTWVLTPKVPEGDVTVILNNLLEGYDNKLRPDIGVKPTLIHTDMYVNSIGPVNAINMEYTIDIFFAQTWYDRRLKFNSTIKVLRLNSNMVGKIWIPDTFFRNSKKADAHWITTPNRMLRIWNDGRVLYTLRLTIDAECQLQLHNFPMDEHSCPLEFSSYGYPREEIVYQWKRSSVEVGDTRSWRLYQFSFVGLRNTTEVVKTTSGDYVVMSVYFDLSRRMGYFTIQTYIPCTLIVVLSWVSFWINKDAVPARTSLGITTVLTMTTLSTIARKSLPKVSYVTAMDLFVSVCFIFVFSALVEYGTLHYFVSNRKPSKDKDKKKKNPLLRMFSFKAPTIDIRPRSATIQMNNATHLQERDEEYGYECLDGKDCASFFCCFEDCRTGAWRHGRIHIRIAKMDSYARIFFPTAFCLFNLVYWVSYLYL
Assay: α1β2γ2 SyncroPatch automated patch clamp assay
Assay type: cell-based
Conditions: HEK cells, potentiation of submaximal GABA current, clamped at −120 mV
Protocol: as §1

First: CCC[C@@]1(O)CC[C@H]2[C@H](CC[C@@H]3[C@@H]2CC[C@]2(C)[C@@H]([C@@H](C)Cn4nnc(C)n4)[C@@H](O)C[C@@H]32)C1 [Example 365, (3R,5R,8R,9R,10S,13S,14S,16S,17R)-13-methyl-17-((R)-1-(5-methyl-2H-tetrazol-2-yl)propan-2-yl)-3-propylhexadecahydro-1H-cyclopenta[a]phenanthrene-3,16-diol]
Second: COC[C@@]1(O)CC[C@H]2[C@H](CC[C@@H]3[C@@H]2CC[C@]2(C)[C@@H]([C@@H](C)Cc4ccc(C(F)(F)F)nc4)CC[C@@H]32)C1 [Example 420]
The pEC50 of the first is lower: ≤ 6.00 for the first, > 6.70 for the second.

Target: [35S]-TBPS binding, rat brain cortical membranes
Assay: Steroid inhibition of [35S]-TBPS binding
Conditions: 3 nM [35S]-TBPS, in the presence of 5 mM GABA
Method in brief: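 Rat cortical P2 membranes incubated 90 min at room temperature with 3 nM [35S]-TBPS, […] and test compound (0.5% DMSO final) in NaCl/Na–K phosphate pH 7.4; nonspecific binding with […]. Filter-bound radioactivity counted; IC50 and Imax from nonlinear fits, mean ± SEM.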

First: CCOC[C@@]1(O)CC[C@H]2[C@H](CC[C@@H]3[C@@H]2CC[C@]2(C)[C@@H]([C@H](Nc4ccc(C#N)cc4C)C(F)(F)F)CC[C@@H]32)C1 [Example 487, 4-(((S)-1-((3R,5R,8R,9R,10S,13S,14S,17S)-3-(ethoxymethyl)-3-hydroxy-13-methylhexadecahydro-1H-cyclopenta[a]phenanthren-17-yl)-2,2,2-trifluoroethyl)amino)-3-methylbenzonitrile]
Second: CCOC[C@@]1(O)CC[C@H]2[C@H](CC[C@@H]3[C@@H]2CC[C@]2(C)[C@@H]([C@@H](Nc4ccc(C#N)cc4C)C(F)(F)F)CC[C@@H]32)C1 [Example 488, 4-(((R)-1-((3R,5R,8R,9R,10S,13S,14S,17S)-3-(ethoxymethyl)-3-hydroxy-13-methylhexadecahydro-1H-cyclopenta[a]phenanthren-17-yl)-2,2,2-trifluoroethyl)amino)-3-methylbenzonitrile]
The pIC50 of the first is higher: 6.00 to 7.00 for the first, 5.00 to 6.00 for the second. The first is the more potent here.

First: Cc1cc(C#N)ccc1N[C@@H]([C@H]1CC[C@H]2[C@@H]3CC[C@@H]4C[C@](C)(O)CC[C@@H]4[C@H]3CC[C@]12C)C(F)(F)F [Example 489, 3-methyl-4-(((S)-2,2,2-trifluoro-1-((3R,5R,8R,9R,10S,13S,14S,17S)-3-hydroxy-3,13-dimethylhexadecahydro-1H-cyclopenta[a]phenanthren-17-yl)ethyl)amino)benzonitrile]
Second: Cc1cc(C#N)ccc1N[C@H]([C@H]1CC[C@H]2[C@@H]3CC[C@@H]4C[C@](C)(O)CC[C@@H]4[C@H]3CC[C@]12C)C(F)(F)F [Example 490, 3-methyl-4-(((R)-2,2,2-trifluoro-1-((3R,5R,8R,9R,10S,13S,14S,17S)-3-hydroxy-3,13-dimethylhexadecahydro-1H-cyclopenta[a]phenanthren-17-yl)ethyl)amino)benzonitrile]
The pIC50 of the first is lower: 5.00 to 6.00 for the first, 6.00 to 7.00 for the second.

First: CC[C@@]1(O)CC[C@H]2[C@H](CC[C@@H]3[C@@H]2CC[C@]2(C)[C@@H]([C@@H](C)Nc4ccc(C#N)nc4)CC[C@@H]32)C1 [Example 491, 5-(((R)-1-((3R,5R,8R,9R,10S,13S,14S,17S)-3-ethyl-3-hydroxy-13-methylhexadecahydro-1H-cyclopenta[a]phenanthren-17-yl)ethyl)amino)picolinonitrile]
Second: CCOC[C@@]1(O)CC[C@H]2[C@H](CC[C@@H]3[C@@H]2CC[C@]2(C)[C@@H]([C@H](CC)Nc4ccc(C#N)nc4)CC[C@@H]32)C1 [Example 493, 5-(((S)-1-((3R,5R,8R,9R,10S,13S,14S,17S)-3-(ethoxymethyl)-3-hydroxy-13-methylhexadecahydro-1H-cyclopenta[a]phenanthren-17-yl)propyl)amino)picolinonitrile]
The pIC50 of the first is higher: 6.00 to 7.00 for the first, 5.00 to 6.00 for the second. The first is the more potent here.

First: CCOC[C@@]1(O)CC[C@H]2[C@H](CC[C@@H]3[C@@H]2CC[C@]2(C)[C@@H]([C@@H](CC)Nc4cccc(C#N)c4)CC[C@@H]32)C1 [Example 492, 3-(((R)-1-((3R,5R,8R,9R,10S,13S,14S,17S)-3-(ethoxymethyl)-3-hydroxy-13-methylhexadecahydro-1H-cyclopenta[a]phenanthren-17-yl)propyl)amino)benzonitrile]
Second: CC[C@H](Nc1cccc(C#N)c1)[C@H]1CC[C@H]2[C@@H]3CC[C@@H]4C[C@@](O)(COC)CC[C@@H]4[C@H]3CC[C@]12C [Example 496, 3-(((S)-1-((3R,5R,8R,9R,10S,13S,14S,17S)-3-hydroxy-3-(methoxymethyl)-13-methylhexadecahydro-1H-cyclopenta[a]phenanthren-17-yl)propyl)amino)benzonitrile]
The pIC50 of the first is lower: 5.00 to 6.00 for the first, 6.00 to 7.00 for the second. The second is the more potent here.

CCOC[C@@]1(O)CC[C@@]2(C)[C@H](CC[C@@H]3[C@@H]2CC[C@]2(C)[C@@H]([C@H](CC)Nc4ccc(C#N)nc4)CC[C@@H]32)C1 [Example 494, 5-(((S)-1-((3R,5R,8R,9S,10S,13S,14S,17S)-3-(ethoxymethyl)-3-hydroxy-10,13-dimethylhexadecahydro-1H-cyclopenta[a]phenanthren-17-yl)propyl)amino)picolinonitrile] and CCOC[C@@]1(O)CC[C@@]2(C)[C@H](CC[C@@H]3[C@@H]2CC[C@]2(C)[C@@H]([C@@H](CC)Nc4ccc(C#N)nc4)CC[C@@H]32)C1 [Example 495, 5-(((R)-1-((3R,5R,8R,9S,10S,13S,14S,17S)-3-(ethoxymethyl)-3-hydroxy-10,13-dimethylhexadecahydro-1H-cyclopenta[a]phenanthren-17-yl)propyl)amino)picolinonitrile] fall in the same range of pIC50: 6.00 to 7.00 for the first, 6.00 to 7.00 for the second.

CC[C@@H](Nc1cccc(C#N)c1)[C@H]1CC[C@H]2[C@@H]3CC[C@@H]4C[C@@](O)(COC)CC[C@@H]4[C@H]3CC[C@]12C [Example 497, 3-(((R)-1-((3R,5R,8R,9R,10S,13S,14S,17S)-3-hydroxy-3-(methoxymethyl)-13-methylhexadecahydro-1H-cyclopenta[a]phenanthren-17-yl)propyl)amino)benzonitrile] and CCOC[C@@]1(O)CC[C@H]2[C@H](CC[C@@H]3[C@@H]2CC[C@]2(C)[C@@H]([C@@H](CC)Nc4ccc(C#N)nc4)CC[C@@H]32)C1 [Example 503] fall in the same range of pIC50: 6.00 to 7.00 for the first, 6.00 to 7.00 for the second.

First: CCOC[C@@]1(O)CC[C@H]2[C@H](CC[C@@H]3[C@@H]2CC[C@]2(C)[C@@H]([C@@H](CC)Cn4ccc(C#N)n4)CC[C@@H]32)C1 [Example 498, 1-((R)-2-((3R,5R,8R,9R,10S,13S,14S,17R)-3-(ethoxymethyl)-3-hydroxy-13-methylhexadecahydro-1H-cyclopenta[a]phenanthren-17-yl)butyl)-1H-pyrazole-3-carbonitrile]
Second: CCOC[C@@]1(O)CC[C@H]2[C@H](CC[C@@H]3[C@@H]2CC[C@]2(C)[C@@H]([C@@H](CC)Cn4nccc4C#N)CC[C@@H]32)C1 [Example 500, 1-((R)-2-((3R,5R,8R,9R,10S,13S,14S,17R)-3-(ethoxymethyl)-3-hydroxy-13-methylhexadecahydro-1H-cyclopenta[a]phenanthren-17-yl)butyl)-1H-pyrazole-5-carbonitrile]
The pIC50 of the first is higher: 6.00 to 7.00 for the first, 5.00 to 6.00 for the second. The first is the more potent here.

CCOC[C@@]1(O)CC[C@H]2[C@H](CC[C@@H]3[C@@H]2CC[C@]2(C)[C@@H]([C@H](CC)Cn4nccc4C#N)CC[C@@H]32)C1 [Example 501, 1-((S)-2-((3R,5R,8R,9R,10S,13S,14S,17R)-3-(ethoxymethyl)-3-hydroxy-13-methylhexadecahydro-1H-cyclopenta[a]phenanthren-17-yl)butyl)-1H-pyrazole-5-carbonitrile] and C[C@@]1(O)CC[C@H]2[C@H](CC[C@@H]3[C@@H]2CC[C@]2(C)[C@@H]([C@H](Nc4ccccc4)C(F)(F)F)CC[C@@H]32)C1 [Example 505] fall in the same range of pIC50: 6.00 to 7.00 for the first, 6.00 to 7.00 for the second.

CCOC[C@@]1(O)CC[C@@]2(C)[C@H](CC[C@H]3C4CC[C@H]([C@@H](C)Nc5ccc(-n6ccc(C#N)n6)cn5)[C@@]4(C)CC[C@@H]32)C1 (stereo partly shown) [Example 502] and CCOC[C@@]1(O)CC[C@@]2(C)[C@H](CC[C@H]3C4CC[C@H]([C@@H](C)Nc5ccc(-n6cc(C#N)cn6)cn5)[C@@]4(C)CC[C@@H]32)C1 (stereo partly shown) [Example 504] fall in the same range of pIC50: 6.00 to 7.00 for the first, 6.00 to 7.00 for the second.
